In ChEMBL document CHEMBL1909046, “DrugMatrix in vitro pharmacology data”:

Tests used:
[1] = DRUGMATRIX: Potassium Channel [KATP] radioligand binding (ligand: [3H] Glyburide); assay type: cell membranes, Membrane; details: hit-t15; Not Active = under 50% inhibition at 10 µM
Adenosine receptor A1 = target: T1, Adenosine receptor A1 (Homo sapiens, UniProt P30542); assay type: cell membranes, Membrane; details: cho;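 note: radioligand binding assay at the adenosine A1 receptor, with DPCPX serving as the labelled ligand; in other assays of this panel Not Active means under 50% inhibition at 10 µM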
T1 sequence (P30542 whole entry): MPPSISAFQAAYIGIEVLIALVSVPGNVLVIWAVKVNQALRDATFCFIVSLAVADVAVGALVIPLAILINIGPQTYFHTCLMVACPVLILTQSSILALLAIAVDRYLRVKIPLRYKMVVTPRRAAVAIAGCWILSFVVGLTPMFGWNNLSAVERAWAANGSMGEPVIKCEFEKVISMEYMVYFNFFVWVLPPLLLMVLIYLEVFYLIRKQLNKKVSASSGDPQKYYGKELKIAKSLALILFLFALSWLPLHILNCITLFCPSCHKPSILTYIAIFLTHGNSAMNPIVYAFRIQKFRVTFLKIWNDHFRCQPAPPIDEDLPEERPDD

[2] = DRUGMATRIX: Phosphodiesterase PDE4 enzyme inhibition (substrate: [3H]cAMP + cAMP); details: u-937; Not Active = under 50% inhibition at 10 µM
Cytochrome P450 2E1 = Cytochrome P450 2E1 (Homo sapiens, UniProt P05181); details: bti-tn-5b1-4; note: in other assays of this panel Not Active means under 50% inhibition at 10 µM
[3] = target: T2, Alpha-1A adrenergic receptor (Rattus norvegicus, UniProt P43140); assay: DRUGMATRIX: Alpha-1A adrenergic receptor radioligand binding (ligand: prazosin); assay type: cell membranes, Wistar, Submaxillary gland, Membrane; details: Not Active = under 50% inhibition at 10 µM
T2 sequence (P43140 whole entry): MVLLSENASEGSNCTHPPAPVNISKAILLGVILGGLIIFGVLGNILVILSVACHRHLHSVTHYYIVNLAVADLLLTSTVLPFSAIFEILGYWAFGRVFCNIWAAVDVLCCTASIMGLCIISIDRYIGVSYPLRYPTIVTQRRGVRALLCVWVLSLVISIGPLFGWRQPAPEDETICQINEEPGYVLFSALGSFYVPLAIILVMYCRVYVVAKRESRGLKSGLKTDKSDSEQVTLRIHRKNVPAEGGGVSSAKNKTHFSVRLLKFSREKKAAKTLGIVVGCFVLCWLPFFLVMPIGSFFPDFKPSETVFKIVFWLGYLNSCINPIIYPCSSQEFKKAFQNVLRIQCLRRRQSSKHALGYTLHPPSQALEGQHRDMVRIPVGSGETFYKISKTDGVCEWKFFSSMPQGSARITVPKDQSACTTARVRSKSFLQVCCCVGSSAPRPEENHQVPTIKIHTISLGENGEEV

[4] = target: Protein phosphatase 3 catalytic subunit alpha (Homo sapiens, UniProt Q08209); parameters: species or system Escherichia coli;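 note: inhibition of calcineurin (PP2B) enzyme activity, measured with DiFMUP as the substrate; in other assays of this panel Not Active means under 50% inhibition at 10 µM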
Cathepsin G = target: T3, Cathepsin G (Homo sapiens, UniProt P08311); assay type: tissue-based; details: neutrophil;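 note: inhibition of Cathepsin G enzyme activity, tested on an AMC-conjugated peptide substrate; in other assays of this panel Not Active means under 50% inhibition at 10 µM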
T3 sequence (P08311 whole entry): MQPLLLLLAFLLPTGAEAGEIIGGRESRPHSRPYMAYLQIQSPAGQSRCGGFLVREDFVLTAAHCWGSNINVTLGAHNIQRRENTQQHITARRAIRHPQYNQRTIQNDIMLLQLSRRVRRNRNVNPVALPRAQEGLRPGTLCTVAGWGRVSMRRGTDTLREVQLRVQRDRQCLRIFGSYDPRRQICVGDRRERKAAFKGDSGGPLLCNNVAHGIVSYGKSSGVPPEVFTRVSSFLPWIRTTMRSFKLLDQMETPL

Thromboxane-A synthase = target: T4, Thromboxane-A synthase (Homo sapiens, UniProt P24557); assay: biochemical; assay type: tissue-based, Platelet; details: platelet
T4 sequence (P24557 whole entry): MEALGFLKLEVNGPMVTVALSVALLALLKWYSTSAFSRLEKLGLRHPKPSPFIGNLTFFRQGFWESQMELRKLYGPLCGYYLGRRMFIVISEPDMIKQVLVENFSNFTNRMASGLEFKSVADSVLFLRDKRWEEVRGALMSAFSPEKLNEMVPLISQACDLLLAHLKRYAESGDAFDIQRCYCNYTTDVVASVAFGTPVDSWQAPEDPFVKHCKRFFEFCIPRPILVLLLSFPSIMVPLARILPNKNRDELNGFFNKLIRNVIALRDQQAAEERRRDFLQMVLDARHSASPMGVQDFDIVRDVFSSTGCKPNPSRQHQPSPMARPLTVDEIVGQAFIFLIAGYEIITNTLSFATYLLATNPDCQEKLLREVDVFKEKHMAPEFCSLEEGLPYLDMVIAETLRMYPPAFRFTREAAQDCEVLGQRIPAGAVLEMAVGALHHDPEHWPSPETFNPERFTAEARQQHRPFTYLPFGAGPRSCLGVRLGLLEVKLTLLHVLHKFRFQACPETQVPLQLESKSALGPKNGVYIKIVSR

Substance-P receptor = Substance-P receptor (Homo sapiens, UniProt P25103); assay type: cell membranes, Membrane; details: cho; note: in other assays of this panel Not Active means under 50% inhibition at 10 µM
Substance-P receptor, sequence (P25103 whole entry): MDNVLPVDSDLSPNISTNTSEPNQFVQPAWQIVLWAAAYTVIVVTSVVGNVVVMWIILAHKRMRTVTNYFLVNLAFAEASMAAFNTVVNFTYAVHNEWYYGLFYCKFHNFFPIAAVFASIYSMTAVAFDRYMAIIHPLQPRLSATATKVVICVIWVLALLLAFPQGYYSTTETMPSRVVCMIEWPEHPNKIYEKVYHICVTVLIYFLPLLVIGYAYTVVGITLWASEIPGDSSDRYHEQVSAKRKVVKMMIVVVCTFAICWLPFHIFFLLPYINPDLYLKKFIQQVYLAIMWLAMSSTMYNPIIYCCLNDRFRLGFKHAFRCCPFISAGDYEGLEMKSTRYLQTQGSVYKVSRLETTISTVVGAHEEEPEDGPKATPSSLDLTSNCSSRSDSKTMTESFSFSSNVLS

Cytochrome P450 2E1, sequence (P05181 whole entry): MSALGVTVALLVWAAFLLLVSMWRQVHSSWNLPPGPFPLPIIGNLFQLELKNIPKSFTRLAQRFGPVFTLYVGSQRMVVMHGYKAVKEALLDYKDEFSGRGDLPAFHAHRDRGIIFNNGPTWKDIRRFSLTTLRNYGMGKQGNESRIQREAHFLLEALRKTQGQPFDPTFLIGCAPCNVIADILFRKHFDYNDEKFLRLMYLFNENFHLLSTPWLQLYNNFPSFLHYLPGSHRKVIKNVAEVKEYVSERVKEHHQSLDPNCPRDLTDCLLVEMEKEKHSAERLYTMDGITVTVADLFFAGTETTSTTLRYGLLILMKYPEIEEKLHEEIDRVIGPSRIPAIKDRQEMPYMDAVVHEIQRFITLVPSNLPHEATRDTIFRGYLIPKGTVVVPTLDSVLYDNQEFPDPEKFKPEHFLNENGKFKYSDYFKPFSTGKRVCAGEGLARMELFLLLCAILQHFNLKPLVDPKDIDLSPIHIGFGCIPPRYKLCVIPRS

O=C(C1CCCCC1)N1CC(=O)N2CCc3ccccc3C2C1 (centres undefined) [PRAZIQUANTEL]
Not Active: IC50 [1] | Ki [1] | IC50 (Adenosine receptor A1) | IC50 [2] | Ki [2] | IC50 (Cytochrome P450 2E1) | Ki (Cytochrome P450 2E1) | IC50 [3] | IC50 [4] | IC50 (Cathepsin G) | IC50 (Thromboxane-A synthase) | IC50 (Substance-P receptor)

CCN(CC)CCOC(=O)c1ccc(N)cc1 [PROCAINE]
Not Active: IC50 [1] | Ki [1] | IC50 (Adenosine receptor A1) | IC50 [2] | Ki [2] | IC50 (Cytochrome P450 2E1) | Ki (Cytochrome P450 2E1) | IC50 [3] | IC50 [4] | IC50 (Cathepsin G) | IC50 (Thromboxane-A synthase) | IC50 (Substance-P receptor)

CCCN(CCC)C(=O)C(CCC(=O)O)NC(=O)c1ccccc1 (centres undefined) [PROGLUMIDE]
Not Active: IC50 [1] | Ki [1] | IC50 (Adenosine receptor A1) | IC50 [2] | Ki [2] | IC50 (Cytochrome P450 2E1) | Ki (Cytochrome P450 2E1) | IC50 [3] | IC50 [4] | IC50 (Cathepsin G) | IC50 (Thromboxane-A synthase) | IC50 (Substance-P receptor)

NC(=O)c1cnccn1 [PYRAZINAMIDE]
Not Active: IC50 [1] | Ki [1] | IC50 (Adenosine receptor A1) | IC50 [2] | Ki [2] | IC50 (Cytochrome P450 2E1) | Ki (Cytochrome P450 2E1) | IC50 [3] | IC50 [4] | IC50 (Cathepsin G) | IC50 (Thromboxane-A synthase) | IC50 (Substance-P receptor)

OC(CCN1CCCCC1)(c1ccccc1)C1CCCCC1 (centres undefined) [TRIHEXYPHENIDYL]
Not Active: IC50 [1] | Ki [1] | IC50 (Adenosine receptor A1) | IC50 [2] | Ki [2] | IC50 (Cytochrome P450 2E1) | Ki (Cytochrome P450 2E1) | IC50 [3] | IC50 [4] | IC50 (Cathepsin G) | IC50 (Thromboxane-A synthase) | IC50 (Substance-P receptor)

Cc1cc2cc3c(C)cc(=O)oc3c(C)c2o1 [TRIOXSALEN]
Not Active: IC50 [1] | Ki [1] | IC50 (Adenosine receptor A1) | IC50 [2] | Ki [2] | IC50 (Cytochrome P450 2E1) | Ki (Cytochrome P450 2E1) | IC50 [3] | IC50 [4] | IC50 (Cathepsin G) | IC50 (Thromboxane-A synthase) | IC50 (Substance-P receptor)

CCCC(CCC)C(=O)O [VALPROIC ACID]
Not Active: IC50 [1] | Ki [1] | IC50 (Adenosine receptor A1) | IC50 [2] | Ki [2] | IC50 (Cytochrome P450 2E1) | Ki (Cytochrome P450 2E1) | IC50 [3] | IC50 [4] | IC50 (Cathepsin G) | IC50 (Thromboxane-A synthase) | IC50 (Substance-P receptor)

CCC1=C[C@@H]2CN(C1)Cc1c([nH]c3ccccc13)[C@@](C(=O)OC)(c1cc3c(cc1OC)N(C)[C@H]1[C@@](O)(C(=O)OC)[C@H](OC(C)=O)[C@]4(CC)C=CCN5CC[C@]31[C@@H]54)C2 [VINORELBINE]
Not Active: IC50 [1] | Ki [1] | IC50 (Adenosine receptor A1) | IC50 [2] | Ki [2] | IC50 (Cytochrome P450 2E1) | Ki (Cytochrome P450 2E1) | IC50 [3] | IC50 [4] | IC50 (Cathepsin G) | IC50 (Thromboxane-A synthase) | IC50 (Substance-P receptor)

CADMIUM DICHLORIDE
Not Active: IC50 [1] | Ki [1] | IC50 (Adenosine receptor A1) | Ki (Adenosine receptor A1) | IC50 [2] | Ki [2] | IC50 (Cytochrome P450 2E1) | Ki (Cytochrome P450 2E1) | IC50 [3] | Ki [3] | IC50 [4] | Ki [4] | IC50 (Cathepsin G) | Ki (Cathepsin G) | IC50 (Thromboxane-A synthase) | Ki (Thromboxane-A synthase) | IC50 (Substance-P receptor) | Ki (Substance-P receptor)
